Like-named read-outs stand apart in the source and are kept apart here.
Test system: tomato late blight
Format: in vivo, Phytophthora infestans

Compound `Cc1cc(OC(C)C)ccc1C(=O)C(C)(C)NC(=O)c1sccc1C` [Isofetamid, isofetamid] has a Control value (isofetamid 18.8 ppm alone (valifenalate 0 ppm)) of 0, a Control value (isofetamid 37.5 ppm alone (valifenalate 0 ppm)) of 0 and a Control value (isofetamid 75 ppm alone (valifenalate 0 ppm)) of 0. For the same compound, the Control value (isofetamid 150 ppm alone (valifenalate 0 ppm)) was 4 and the Control value (isofetamid 300 ppm alone (valifenalate 0 ppm)) was 8.
`CC(C)(C)C(O)(CCc1ccc(Cl)cc1)Cn1cncn1` (stereo not drawn) [Tebuconazole, tebuconazole] showed a Control value (tebuconazole 12.5 ppm alone (valifenalate 0 ppm)) of 4, a Control value (tebuconazole 25 ppm alone (valifenalate 0 ppm)) of 4 and a Control value (tebuconazole 50 ppm alone (valifenalate 0 ppm)) of 4. The Control value (tebuconazole 100 ppm alone (valifenalate 0 ppm)) was 8.
For `COC(=O)CC(NC(=O)[C@@H](NC(=O)OC(C)C)C(C)C)c1ccc(Cl)cc1` (stereo partly drawn) [Valifenalate, valifenalate], the Control value (valifenalate 1.2 ppm alone (difenoconazole 0 ppm), Table 4) was 46, the Control value (valifenalate 1.2 ppm alone (isofetamid 0 ppm), Table 1) was 29 and the Control value (valifenalate 1.2 ppm alone (pyriofenone 0 ppm), Table 2) was 13. It also gave a Control value (valifenalate 2.3 ppm alone (difenoconazole 0 ppm), Table 4) of 54, a Control value (valifenalate 2.3 ppm alone (isofetamid 0 ppm), Table 1) of 42 and a Control value (valifenalate 2.3 ppm alone (pyriofenone 0 ppm), Table 2) of 25. The Control value (valifenalate 2.3 ppm alone (tebuconazole 0 ppm), Table 3) was 33, the Control value (valifenalate 4.7 ppm alone (difenoconazole 0 ppm), Table 4) was 58 and the Control value (valifenalate 4.7 ppm alone (isofetamid 0 ppm), Table 1) was 54. For the same compound, the Control value (valifenalate 4.7 ppm alone (pyriofenone 0 ppm), Table 2) was 50, the Control value (valifenalate 4.7 ppm alone (tebuconazole 0 ppm), Table 3) was 46 and the Control value (valifenalate 9.4 ppm alone (difenoconazole 0 ppm), Table 4) was 75. The Control value (valifenalate 9.4 ppm alone (isofetamid 0 ppm), Table 1) was 71, the Control value (valifenalate 9.4 ppm alone (pyriofenone 0 ppm), Table 2) was 63 and the Control value (valifenalate 9.4 ppm alone (tebuconazole 0 ppm), Table 3) was 63. For the same compound, the Control value (valifenalate 18.8 ppm alone (isofetamid 0 ppm), Table 1) was 75, the Control value (valifenalate 18.8 ppm alone (pyriofenone 0 ppm), Table 2) was 79 and the Control value (valifenalate 18.8 ppm alone (tebuconazole 0 ppm), Table 3) was 67. The Control value (valifenalate 37.5 ppm alone (tebuconazole 0 ppm), Table 3) was 72.
`COc1cc(C)c(C(=O)c2c(OC)ncc(Cl)c2C)c(OC)c1OC` [Pyriofenone, pyriofenone] showed a Control value (pyriofenone 12.5 ppm alone (valifenalate 0 ppm)) of 0, a Control value (pyriofenone 25 ppm alone (valifenalate 0 ppm)) of 0 and a Control value (pyriofenone 50 ppm alone (valifenalate 0 ppm)) of 0. For the same compound, the Control value (pyriofenone 100 ppm alone (valifenalate 0 ppm)) was 0.
With `CC1COC(Cn2cncn2)(c2ccc(Oc3ccc(Cl)cc3)cc2Cl)O1` (stereo not drawn) [Difenoconazole, difenoconazole] the Control value (difenoconazole 12.5 ppm alone (valifenalate 0 ppm)) was 13, the Control value (difenoconazole 25 ppm alone (valifenalate 0 ppm)) was 13 and the Control value (difenoconazole 50 ppm alone (valifenalate 0 ppm)) was 21. For the same compound, the Control value (difenoconazole 100 ppm alone (valifenalate 0 ppm)) was 25.
